{
  "source": "patent US20260146035A1",
  "about": "“FUSED BICYCLIC COMPOUNDS AND THEIR USE AS MER AND AXL INHIBITORS” (DONG-A ST CO., LTD., priority 2022, published 2026)",
  "key": {"human TYRO3 (455-end)": {"molecular_target": "T1, human TYRO3 (455-end) (Homo sapiens, UniProt Q06418)", "T1 construct": "TYRO3 (455-end); purchased SignalChem, Canada", "T1 sequence (Q06418 455-890 limits assumed)": "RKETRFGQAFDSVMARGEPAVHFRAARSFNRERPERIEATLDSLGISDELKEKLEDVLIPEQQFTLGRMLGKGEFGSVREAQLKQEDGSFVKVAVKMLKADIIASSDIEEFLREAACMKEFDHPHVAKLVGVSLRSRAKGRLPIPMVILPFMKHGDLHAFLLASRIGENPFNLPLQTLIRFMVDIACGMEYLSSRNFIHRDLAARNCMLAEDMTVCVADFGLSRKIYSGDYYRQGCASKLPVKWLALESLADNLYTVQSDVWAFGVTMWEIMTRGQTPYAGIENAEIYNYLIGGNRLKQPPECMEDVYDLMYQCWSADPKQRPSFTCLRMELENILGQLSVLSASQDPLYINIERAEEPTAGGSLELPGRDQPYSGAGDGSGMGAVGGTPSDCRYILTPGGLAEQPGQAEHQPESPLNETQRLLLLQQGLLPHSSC", "assay": "HTRF kinase activity biochemical assay, TYRO3", "details": "10 μM ATP, 30 minutes pre-incubation; read-out: HTRF TYRO IC50", "protocol": "(§1) For the SAR (structure-activity relationship) and compound screening, HTRF (Homogeneous Time Resolved Fluorescence) kinase activity assay was employed for all MER, AXL and TYRO3 kinases using Cisbio HTRF® KinEASE™-TK kit (Cisbio, USA). The kit included biotin-labeled TK substrate, streptavidin-XL665, Eu3+-cryptate-labeled TK antibody and HTRF® Detection buffer. There are two main steps in the kinase assay: kinase reaction and detection of phosphorylated substrate. The reaction was carried out in white low volume 384-well plate (Corning, USA) with 25 nL compound in dimethyl sulfoxide in each well. […] After 1 hour incubation at room temperature, the fluorescence intensity was measured with Envision[…] plate reader (PerkinElmer, USA). Upon excitation at 340 nm by UV, the energy from Eu3+ donor of the antibody is transferred to the FRET acceptor XL665, and […] emits light at 665 nm."}, "human MER (528-end)": {"molecular_target": "T2, human MER (528-end) (Homo sapiens, UniProt Q12866)", "T2 construct": "human MER (528-end); purchased Camnabio, Japan", "T2 sequence (Q12866 528-999 limits assumed)": "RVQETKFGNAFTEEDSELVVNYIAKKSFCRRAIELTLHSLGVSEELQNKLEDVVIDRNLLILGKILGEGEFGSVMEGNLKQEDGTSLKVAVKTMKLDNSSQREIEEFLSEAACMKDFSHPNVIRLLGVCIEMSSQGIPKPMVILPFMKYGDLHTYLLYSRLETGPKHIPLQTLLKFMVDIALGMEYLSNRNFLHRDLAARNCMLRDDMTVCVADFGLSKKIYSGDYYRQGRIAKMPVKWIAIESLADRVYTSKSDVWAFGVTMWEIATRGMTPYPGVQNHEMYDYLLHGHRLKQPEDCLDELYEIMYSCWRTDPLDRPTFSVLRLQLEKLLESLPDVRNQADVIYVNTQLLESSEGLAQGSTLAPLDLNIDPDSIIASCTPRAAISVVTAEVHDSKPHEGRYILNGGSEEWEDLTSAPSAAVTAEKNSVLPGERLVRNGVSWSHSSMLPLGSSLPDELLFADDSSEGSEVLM", "assay": "HTRF kinase activity biochemical assay, MER", "details": "10 μM ATP, 30 minutes pre-incubation; read-out: HTRF MERTK IC50", "protocol": "as §1"}, "human AXL (473-end)": {"molecular_target": "T3, human AXL (473-end) (Homo sapiens, UniProt P30530)", "T3 construct": "human AXL (473-end); purchased SignalChem, Canada", "T3 sequence (P30530 473-894 limits assumed)": "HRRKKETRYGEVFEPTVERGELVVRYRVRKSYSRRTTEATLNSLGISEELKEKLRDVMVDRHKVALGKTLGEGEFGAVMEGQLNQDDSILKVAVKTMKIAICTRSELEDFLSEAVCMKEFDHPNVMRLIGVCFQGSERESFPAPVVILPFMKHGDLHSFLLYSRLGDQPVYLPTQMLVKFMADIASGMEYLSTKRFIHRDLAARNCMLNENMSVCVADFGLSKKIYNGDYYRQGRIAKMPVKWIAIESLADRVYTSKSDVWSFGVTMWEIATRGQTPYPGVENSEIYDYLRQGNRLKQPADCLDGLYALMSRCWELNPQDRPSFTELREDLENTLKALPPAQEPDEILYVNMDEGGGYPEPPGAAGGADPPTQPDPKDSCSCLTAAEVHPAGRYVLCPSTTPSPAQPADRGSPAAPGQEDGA", "assay": "HTRF kinase activity biochemical assay, AXL", "details": "10 μM ATP, 30 minutes pre-incubation", "protocol": "as §1"}},
  "data": [
    {"smiles": "COc1ccnc(N)c1C(=O)N[C@H]1CCC[C@@H]1OCc1ccc(-c2ccc3c(c2)CC[C@@H]3N2CCN(CCO)CC2)cc1", "note": "[Example 137, 2-amino-N-{(1S,2S)-2-[(4-{(1S)-1-[4-(2-hydroxyethyl)piperazin-1-yl]-2,3-dihydro-1H-inden-5-yl}phenyl)methoxy]cyclopentyl}-4-methoxypyridine-3-carboxamide]", "values": [
      {"measurement": "IC50", "setting": "human TYRO3 (455-end)", "value": "100 to 1000", "unit": "nM"},
      {"measurement": "IC50", "setting": "human MER (528-end)", "value": "< 10", "unit": "nM"},
      {"measurement": "IC50", "setting": "human AXL (473-end)", "value": "< 10", "unit": "nM"}
    ]},
    {"smiles": "CN1CCN([C@H]2CCCc3cc(-c4ccc(CO[C@H]5CCC[C@@H]5NC(=O)c5cc(-c6cccnc6F)cnc5N)cc4)ccc32)CC1", "note": "[Example 163, 6-amino-2′-fluoro-N-[(1S,2S)-2-({4-[(5S)-5-(4-methylpiperazin-1-yl)-5,6,7,8-tetrahydronaphthalen-2-yl]phenyl}methoxy)cyclopentyl][3,3′-bipyridine]-5-carboxamide]", "values": [
      {"measurement": "IC50", "setting": "human TYRO3 (455-end)", "value": "10 to 100", "unit": "nM"},
      {"measurement": "IC50", "setting": "human MER (528-end)", "value": "< 10", "unit": "nM"},
      {"measurement": "IC50", "setting": "human AXL (473-end)", "value": "< 10", "unit": "nM"}
    ]},
    {"smiles": "Cc1cc(-c2cnc(N)c(C(=O)N[C@H]3CCC[C@@H]3OCc3ccc(-c4ccc5c(c4)CC[C@@H]5N4CCN(CCO)CC4)cc3)c2)sn1", "note": "[Example 175, 2-amino-N-{(1S,2S)-2-[(4-{(1S)-1-[4-(2-hydroxyethyl)piperazin-1-yl]-2,3-dihydro-1H-inden-5-yl}phenyl)methoxy]cyclopentyl}-5-(3-methyl-1,2-thiazol-5-yl)pyridine-3-carboxamide]", "values": [
      {"measurement": "IC50", "setting": "human TYRO3 (455-end)", "value": "10 to 100", "unit": "nM"},
      {"measurement": "IC50", "setting": "human MER (528-end)", "value": "< 10", "unit": "nM"},
      {"measurement": "IC50", "setting": "human AXL (473-end)", "value": "< 10", "unit": "nM"}
    ]},
    {"smiles": "Nc1ncc(-c2cncc(F)c2)cc1C(=O)N[C@H]1CCC[C@@H]1OCc1ccc(-c2ccc3c(c2)OCCC3N2CCN(CCO)CC2)cc1", "note": "(stereo partly drawn) [Example 132, 6-amino-5′-fluoro-N-{(1S,2S)-2-[(4-{4-[4-(2-hydroxyethyl)piperazin-1-yl]-3,4-dihydro-2H-1-benzopyran-7-yl}phenyl)methoxy]cyclopentyl}[3,3′-bipyridine]-5-carboxamide]", "values": [
      {"measurement": "IC50", "setting": "human TYRO3 (455-end)", "value": "100 to 1000", "unit": "nM"},
      {"measurement": "IC50", "setting": "human MER (528-end)", "value": "< 10", "unit": "nM"},
      {"measurement": "IC50", "setting": "human AXL (473-end)", "value": "< 10", "unit": "nM"}
    ]},
    {"smiles": "CN1CC(C)(C)c2cc(-c3ccc(CO[C@H]4CCC[C@@H]4NC(=O)c4cc(-c5cnn(C)c5)cnc4N)cc3)ccc21", "note": "[Example 17, 2-amino-5-(1-methyl-1H-pyrazol-4-yl)-N-[(1S,2S)-2-{[4-(1,3,3-trimethyl-2,3-dihydro-1H-indol-5-yl)phenyl]methoxy}cyclopentyl]pyridine-3-carboxamide]", "values": [
      {"measurement": "IC50", "setting": "human TYRO3 (455-end)", "value": "> 1000", "unit": "nM"},
      {"measurement": "IC50", "setting": "human MER (528-end)", "value": "10 to 100", "unit": "nM"},
      {"measurement": "IC50", "setting": "human AXL (473-end)", "value": "10 to 100", "unit": "nM"}
    ]},
    {"smiles": "Cn1cc(-c2cnc(N)c(C(=O)N[C@H]3CCC[C@@H]3OCc3ccc(-c4ccc5c(c4)C(C)(C)CN5C4CCN(CC(N)=O)CC4)cc3)c2)cn1", "note": "[Example 27, 2-amino-N-{(1S,2S)-2-[(4-{1-[1-(2-amino-2-oxoethyl)piperidin-4-yl]-3,3-dimethyl-2,3-dihydro-1H-indol-5-yl}phenyl)methoxy]cyclopentyl}-5-(1-methyl-1H-pyrazol-4-yl)pyridine-3-carboxamide]", "values": [
      {"measurement": "IC50", "setting": "human TYRO3 (455-end)", "value": "100 to 1000", "unit": "nM"},
      {"measurement": "IC50", "setting": "human MER (528-end)", "value": "< 10", "unit": "nM"},
      {"measurement": "IC50", "setting": "human AXL (473-end)", "value": "10 to 100", "unit": "nM"}
    ]},
    {"smiles": "Cc1cc2cc(-c3ccc(CO[C@H]4CCC[C@@H]4NC(=O)c4cc(-c5cnn(C)c5)cnc4N)cc3)ccc2[nH]1", "note": "[Example 56, 2-amino-N-[(1S,2S)-2-{[4-(2-methyl-1H-indol-5-yl)phenyl]methoxy}cyclopentyl]-5-(1-methyl-1H-pyrazol-4-yl)pyridine-3-carboxamide]", "values": [
      {"measurement": "IC50", "setting": "human TYRO3 (455-end)", "value": "> 1000", "unit": "nM"},
      {"measurement": "IC50", "setting": "human MER (528-end)", "value": "10 to 100", "unit": "nM"},
      {"measurement": "IC50", "setting": "human AXL (473-end)", "value": "10 to 100", "unit": "nM"}
    ]},
    {"smiles": "CC1(C)C[C@H](N2CCN(CCO)CC2)c2ccc(-c3ccc(CO[C@H]4CCC[C@@H]4NC(=O)c4cc(-c5ccc(F)nc5)cnc4N)cc3)cc21", "note": "[Example 104, 6-amino-6′-fluoro-N-{(1S,2S)-2-[(4-{(1S)-1-[4-(2-hydroxyethyl)piperazin-1-yl]-3,3-dimethyl-2,3-dihydro-1H-inden-5-yl}phenyl)methoxy]cyclopentyl}[3,3′-bipyridine]-5-carboxamide]", "values": [
      {"measurement": "IC50", "setting": "human TYRO3 (455-end)", "value": "< 10", "unit": "nM"},
      {"measurement": "IC50", "setting": "human MER (528-end)", "value": "< 10", "unit": "nM"},
      {"measurement": "IC50", "setting": "human AXL (473-end)", "value": "< 10", "unit": "nM"}
    ]}
  ]
}
